According to BindingDB's records for doi:10.1021/jm00090a009 (Takeda Chemical Industries, 1992):

Target: Thromboxane A2 receptor (Cavia porcellus)
Assay: Compound was evaluated for its ability to inhibit specific binding of [3H]U-46619 to Thromboxane A2/ Prostaglandin H2 receptor in guinea pig platelet membrane

Structure (SMILES) | IC50
Cc1c(C)c(O)c(C(=CCCCCC(=O)O)c2ccc(F)cc2)c(C)c1O | 1400 nM
Cc1c(C)c(C(CCCCCC(=O)O)c2ccc(F)cc2)c(O)c(C)c1C=O (configuration not stated) | 30 nM
